From US8853230B2, “Inhibitors of JAK” (Portola Pharmaceuticals, Inc., priority 2009, dated 2014)

What was measured:
Format in all cases: biochemical
JAK1 = biological target: T1, JAK1 (Homo sapiens, UniProt P23458); test: Z'-LYTE kinase assay, JAK1 tyrosine phosphorylation activity; conditions: read-out: JAK 1 IC50
T1 construct: 5 μl of catalytic domain recombinant Kinase enzyme+Tyr peptide substrate (Invitrogen, Calif.); purchased Invitrogen
Summary of the method: (§1)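 Inhibition is expressed as substrate phosphorylation relative to inhibitor-free wells, fitted with a 4-parameter logistic model for IC50. Reactions contain catalytic-domain kinase, Tyr6 peptide and ATP, run 1 h at room temperature. Development protease is added for 1 h before fluorescence readout.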

TYK2 = biological target: T2, TYK2 (Homo sapiens, UniProt P29597); test: Z'-LYTE kinase assay, TYK2 tyrosine phosphorylation activity
T2 construct: 5 μl of catalytic domain recombinant Kinase enzyme+Tyr peptide substrate (Invitrogen, Calif.); purchased Invitrogen
T2 sequence (P29597 897-1176 limits assumed): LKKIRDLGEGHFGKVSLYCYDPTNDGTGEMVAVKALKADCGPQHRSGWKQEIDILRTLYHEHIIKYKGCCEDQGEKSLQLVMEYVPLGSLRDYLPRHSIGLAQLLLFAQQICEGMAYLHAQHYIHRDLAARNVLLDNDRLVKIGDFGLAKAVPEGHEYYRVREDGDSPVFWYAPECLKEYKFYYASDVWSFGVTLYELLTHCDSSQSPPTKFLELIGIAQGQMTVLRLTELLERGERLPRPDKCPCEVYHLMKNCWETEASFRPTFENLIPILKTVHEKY
Description: JAK and TYK2 tyrosine phosphorylation activity is measured using the Z′-LYTE™ Technology developed by Invitrogen Corporation (Carlsbad, Calif.). For JAK1, JAK2 and JAK3 the Z′-LYTE™ Kinase Assay Kit-Tyr6 Peptide (part number PV4122) was used. For TYK2 the Z′-LYTE™ Kinase Assay Kit-Tyr6 Peptide (part number PV3192) was used. The Z′-LYTE™ biochemical assay employs a fluorescence resonance energy transfer (FRET) coupled-enzyme format and is based on the differential sensitivity of phosphorylated and non-phosphorylated peptides to proteolitic cleavage. The assay uses a synthetic peptide substrate that is labelled with a donor fluorophore (coumarin) and an acceptor fluorophore (fluorescein) that make up a FRET pair. In the primary reaction (the Kinase Reaction), the kinase transfers the γ-phosphate of ATP to a single tyrosine residue on the substrate, while the presence of a kinase inhibitor in the primary reaction suppresses phosphorylation. In the secondary reaction (the Development Reaction), a site-specific protease (the Development Reagent) is added. The development buffer quenches the Kinase Reaction, while the protease recognizes and cleaves non-phosphorylated Z′-LYTE™ peptide substrate. Cleavage disrupts FRET between the donor and acceptor fluorophores on the non-phosphoryleted substrate, while uncleaved, phosphorylated substrate maintains FRET.
To test the ability of candidate molecules to inhibit JAK tyrosine phosphorylation activity, molecules are reconstituted in 100% DMSO and serially diluted 1:10 in polypropylene v-bottom microtiter plates. The candidate molecules are then diluted 1:25 into kinase buffer and 2.5 μl transferred into duplicate wells of a 384 well low volume black microtiter assay plate (Corning, USA). The final DMSO concentration in the assay is 1%. The kinase reaction contains 2.5 μl of a candidate molecule, 5 μl of catalytic domain recombinant Kinase enzyme+Tyr peptide substrate (Invitrogen, Calif.) and 2.5 μl ATP (Invitrogen, Calif.). The kinase reaction is allowed to procede for 1 hour at room temperature. The protease reaction is initiated by the addition of 5 μl Development Reagent (Invitrogen, Calif.). After 1 hour incubation at room temperature the fluorescence is measured using a FlexStation plate reader (Molecular Devices, Sunnyvale, Calif.). The reader settings used are as follows: Fluorescence mode, endpoint, top read, excitation 400 nm, emission 445 nm and 520 nm, Auto Cutoff 435 nm and 515 nm, PMT sensitivity high, 6 reads per well. Inhibition of JAK activity is calculated as the percent phosphorylation of substrate in the presence of inhibitor compared to the percent phosphorylation of substrate in the absence of inhibitor. IC50's were derived using Xlfit 4.3 (IDBS, UK), 4 parameter logistic model 205: Y=(A+((B−A)/(1+((C/x)^D)))).

JAK2 = biological target: T3, JAK2 (Homo sapiens, UniProt O60674); test: Z'-LYTE kinase assay, JAK2 tyrosine phosphorylation activity
T3 construct: 5 μl of catalytic domain recombinant Kinase enzyme+Tyr peptide substrate (Invitrogen, Calif.); purchased Invitrogen
T3 sequence (O60674 849-1124 limits assumed): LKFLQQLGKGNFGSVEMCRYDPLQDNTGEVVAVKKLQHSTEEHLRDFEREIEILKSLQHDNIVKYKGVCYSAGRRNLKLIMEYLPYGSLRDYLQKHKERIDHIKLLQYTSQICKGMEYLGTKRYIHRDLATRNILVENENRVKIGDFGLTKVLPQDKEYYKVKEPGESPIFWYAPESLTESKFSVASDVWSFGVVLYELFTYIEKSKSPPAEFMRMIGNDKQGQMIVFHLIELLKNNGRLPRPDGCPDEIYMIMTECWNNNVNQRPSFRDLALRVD
Summary of the method: as §1

JAK3 = biological target: T4, JAK3 (Homo sapiens, UniProt P52333); test: Z'-LYTE kinase assay, JAK3 tyrosine phosphorylation activity
T4 construct: 5 μl of catalytic domain recombinant Kinase enzyme+Tyr peptide substrate (Invitrogen, Calif.); purchased Invitrogen
T4 sequence (P52333 822-1111 limits assumed): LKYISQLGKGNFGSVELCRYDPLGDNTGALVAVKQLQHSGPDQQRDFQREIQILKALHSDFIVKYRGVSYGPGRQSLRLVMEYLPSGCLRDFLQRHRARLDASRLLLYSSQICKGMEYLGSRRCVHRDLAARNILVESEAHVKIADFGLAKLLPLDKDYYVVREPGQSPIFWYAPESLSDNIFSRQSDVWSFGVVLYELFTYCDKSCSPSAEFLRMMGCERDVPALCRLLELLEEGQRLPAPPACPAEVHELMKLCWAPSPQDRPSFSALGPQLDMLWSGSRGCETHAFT
Summary of the method: as §1

T1 sequence (P23458 875-1153 limits assumed): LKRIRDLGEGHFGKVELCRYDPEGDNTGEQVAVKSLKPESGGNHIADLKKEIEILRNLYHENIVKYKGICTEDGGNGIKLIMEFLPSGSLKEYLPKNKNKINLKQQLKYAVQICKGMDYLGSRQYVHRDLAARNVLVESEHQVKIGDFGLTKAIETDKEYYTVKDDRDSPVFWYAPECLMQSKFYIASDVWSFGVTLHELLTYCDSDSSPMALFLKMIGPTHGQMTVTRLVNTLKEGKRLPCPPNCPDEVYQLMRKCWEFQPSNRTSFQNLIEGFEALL

Row | Structure (SMILES) | IC50 (JAK1) | IC50 (TYK2) | IC50 (JAK2) | IC50 (JAK3)
1 | CCNc1nc(Nc2cccc(NC(=O)N3CCCC3)c2)ncc1C(N)=O [Example 134, 4-(ethylamino)-2-(3-(pyrrolidine-1-carboxamido)phenylamino)pyrimidine-5-carboxamide] | 10 to 100 nM | 10 to 100 nM | 10 to 100 nM | 1 to 10 nM
2 | NC(=O)c1cnc(Nc2cccc(NC(=O)N3CCCC3)c2)nc1NCC(F)(F)F [Example 136, 2-(3-(pyrrolidine-1-carboxamido)phenylamino)-4-(2,2,2-trifluoroethylamino)pyrimidine-5-carboxamide] | 10 to 100 nM | 10 to 100 nM | 10 to 100 nM | 10 to 100 nM
3 | COC[C@@H]1CCCN1C(=O)Nc1cccc(Nc2ncc(C(N)=O)c(N[C@H](C)c3ccccc3)n2)c1 [Example 138, 2-(3-((S)-2-(methoxymethyl)pyrrolidine-1-carboxamido)phenylamino)-4-((R)-1-phenylethylamino)pyrimidine-5-carboxamide] | 100 to 1000 nM | 10 to 100 nM | 10 to 100 nM | 1 to 10 nM
4 | CN(C(=O)N1CCCC1)c1cccc(Nc2ncc(C(N)=O)c(NCc3ccccc3)n2)c1 [Example 141, 4-(benzylamino)-2-(3-(N-methylpyrrolidine-1-carboxamido)phenylamino)pyrimidine-5-carboxamide] | 100 to 1000 nM | 100 to 1000 nM | 10 to 100 nM | 1 to 10 nM
5 | CC[C@H](C)Nc1nc(Nc2cccc(NC(=O)COC)c2)ncc1C(N)=O [Example 144, (S)-4-(sec-butylamino)-2-(3-(2-methoxyacetamido)phenylamino)pyrimidine-5-carboxamide] | 100 to 1000 nM | 10 to 100 nM | 100 to 1000 nM | 10 to 100 nM
6 | CC[C@H](C)Nc1nc(Nc2cccc(NC(=O)N3CCCC3)c2)ncc1C(N)=O [Example 145] | 10 to 100 nM | 10 to 100 nM | 10 to 100 nM | 1 to 10 nM
7 | C[C@@H]1CCCN1C(=O)Nc1cccc(Nc2ncc(C(N)=O)c(N[C@H](C)c3ccccc3)n2)c1 [Example 148, 2-(3-((R)-2-methylpyrrolidine-1-carboxamido)phenylamino)-4-((R)-1-phenylethylamino)pyrimidine-5-carboxamide] | 100 to 1000 nM | 10 to 100 nM | 10 to 100 nM | 1 to 10 nM
8 | COCC(=O)N(c1cccc(Nc2ncc(C(N)=O)c(NCc3ccccc3)n2)c1)C1CC1 [Example 150, 4-(benzylamino)-2-(3-(N-cyclopropyl-2-methoxyacetamido)phenylamino)pyrimidine-5-carboxamide] | > 1000 nM | 100 to 1000 nM | > 1000 nM | 100 to 1000 nM
9 | NC(=O)c1cnc(Nc2cccc(N(C(=O)C3CC3)C3CC3)c2)nc1NCc1ccccc1 [Example 151, 4-(benzylamino)-2-(3-(N-cyclopropylcyclopropanecarboxamido)phenylamino)pyrimidine-5-carboxamide] | > 1000 nM | > 1000 nM | > 1000 nM | > 1000 nM
10 | CC(=O)Nc1cccc(Nc2ncc(C(N)=O)c(N[C@@H](c3ccccc3)C3CC3)n2)c1 [Example 152, (R)-2-(3-acetamidophenylamino)-4-(cyclopropyl(phenyl)methylamino)pyrimidine-5-carboxamide] | 100 to 1000 nM | 100 to 1000 nM | 100 to 1000 nM | 10 to 100 nM
11 | CNC(=O)Nc1cc(Nc2ncc(C(N)=O)c(NCc3ccccc3)n2)ccc1F [Example 158, 4-(benzylamino)-2-(4-fluoro-3-(3-methylureido)phenylamino)pyrimidine-5-carboxamide] | > 1000 nM | 10 to 100 nM | 10 to 100 nM | 1 to 10 nM
12 | NC(=O)c1cnc(Nc2ccc(N3CCCC3)c(NC(=O)N3CCCC3)c2)nc1NCc1ccccc1 [Example 159, 4-(benzylamino)-2-(4-(pyrrolidin-1-yl)-3-(pyrrolidine-1-carboxamido)phenylamino)pyrimidine-5-carboxamide] | 100 to 1000 nM | 10 to 100 nM | 10 to 100 nM | 1 to 10 nM
13 | CC(=O)N(c1cccc(Nc2ncc(C(N)=O)c(N[C@H](C)c3ccccc3)n2)c1)C1CC1 [Example 161, (R)-2-(3-(N-cyclopropylacetamido)phenylamino)-4-(1-phenylethylamino)pyrimidine-5-carboxamide] | 100 to 1000 nM | 100 to 1000 nM | 10 to 100 nM | 1 to 10 nM
14 | COCC(=O)N(c1cccc(Nc2ncc(C(N)=O)c(N[C@H](C)c3ccccc3)n2)c1)C1CC1 [Example 162, (R)-2-(3-(N-cyclopropyl-2-methoxyacetamido)phenylamino)-4-(1-phenylethylamino)pyrimidine-5-carboxamide] | 10 to 100 nM | 10 to 100 nM | 10 to 100 nM | 1 to 10 nM
15 | CNC(=O)Nc1cc(Nc2ncc(C(N)=O)c(NC3CCCC3)n2)ccc1Cl [Example 166, 2-(4-chloro-3-(3-methylureido)phenylamino)-4-(cyclopentylamino)pyrimidine-5-carboxamide] | 10 to 100 nM | 10 to 100 nM | 10 to 100 nM | 10 to 100 nM
16 | NC(=O)c1cnc(Nc2ccc(Cl)c(NC(=O)N3CCCC3)c2)nc1NC1CCCC1 [Example 167, 2-(4-chloro-3-(pyrrolidine-1-carboxamido)phenylamino)-4-(cyclopentylamino)pyrimidine-5-carboxamide] | 10 to 100 nM | 10 to 100 nM | 100 to 1000 nM | 10 to 100 nM
17 | NC(=O)c1cnc(Nc2ccc(Cl)c(NC(=O)N3CCCC3)c2)nc1NCc1cccc(Cl)c1 [Example 173, 2-(4-chloro-3-(pyrrolidine-1-carboxamido)phenylamino)-4-(3-chlorobenzylamino)pyrimidine-5-carboxamide] | > 1000 nM | 100 to 1000 nM | 100 to 1000 nM | 10 to 100 nM
18 | NC(=O)c1cnc(Nc2ccc(Cl)c(NC(=O)N3CCCC3)c2)nc1NCC1CC1 [Example 174, 2-(4-chloro-3-(pyrrolidine-1-carboxamido)phenylamino)-4-(cyclopropylmethylamino)pyrimidine-5-carboxamide] | 10 to 100 nM | 10 to 100 nM | 100 to 1000 nM | 10 to 100 nM
19 | CC[C@H](C)Nc1nc(Nc2ccc(Cl)c(NC(=O)NC)c2)ncc1C(N)=O [Example 175, (S)-4-(sec-butylamino)-2-(4-chloro-3-(3-methylureido)phenylamino)pyrimidine-5-carboxamide] | 100 to 1000 nM | 10 to 100 nM | 100 to 1000 nM | 10 to 100 nM
20 | CC[C@H](C)Nc1nc(Nc2ccc(Cl)c(NC(=O)N3CCCC3)c2)ncc1C(N)=O [Example 176, (S)-4-(sec-butylamino)-2-(4-chloro-3-(pyrrolidine-1-carboxamido)phenylamino)pyrimidine-5-carboxamide] | 10 to 100 nM | 10 to 100 nM | 100 to 1000 nM | 10 to 100 nM
21 | CNC(=O)Nc1cc(Nc2ncc(C(N)=O)c(NCC3CC3)n2)ccc1Cl [Example 178, 2-(4-chloro-3-(3-methylureido)phenylamino)-4-(cyclopropylmethylamino)pyrimidine-5-carboxamide] | 100 to 1000 nM | 10 to 100 nM | 10 to 100 nM | 10 to 100 nM
